How the values were obtained:
[1] = molecular target: Phosphatidylinositol 4,5-bisphosphate 3-kinase catalytic subunit gamma isoform (Homo sapiens, UniProt P48736); assay: Inhibition of N-terminal His6-tagged recombinant full length human PI3Kgamma expressed in baculovirus infected Sf21 insect cells incubated for 30 mins by HTRF assay
SU-DHL-6 [2] = assay: Induction of cell cycle arrest in human SU-DHL-6 cells assessed as accumulation of cells at G2/M phase at 0.5 uM incubated for 24 hrs by PI staining based FACScan flow cytometry analysis (reference value: 20.21 %); format: functional
[3] = Volume of distribution at steady state in Sprague-Dawley rat at 5 mg/kg, iv measured upto 24 hrs by LC-MS/MS analysis; format: ADME, organism-based; details: in vivo, read-out: Vdss
[4] = molecular target: Phosphatidylinositol 4,5-bisphosphate 3-kinase catalytic subunit alpha isoform (Homo sapiens, UniProt P42336); assay: Inhibition of N-terminal His6-tagged recombinant full length human PI3Kalpha expressed in baculovirus infected Sf21 insect cells incubated for 30 mins by HTRF assay
DOHH-2 [5] = assay: Induction of cell cycle arrest in human DOHH-2 cells assessed as accumulation of cells at S phase at 0.5 uM incubated for 24 hrs in presence of ibrutinib by PI staining based flow cytometry analysis (reference value: 55.11 %); format: functional
Homo sapiens [6] = species: Homo sapiens; assay: Selectivity ratio of IC50 for N-terminal His6-tagged recombinant full length human PI3Kbeta expressed in baculovirus infected Sf21 insect cells to IC50 for N-terminal His6-tagged recombinant full length human PI3Kgamma expressed in baculovirus infected Sf21 insect cells
[7] = Half life in Sprague-Dawley rat at 5 mg/kg, po measured upto 24 hrs by LC-MS/MS analysis; format: ADME, organism-based; details: in vivo
[8] = Tmax in Sprague-Dawley rat at 2 mg/kg, iv measured upto 24 hrs by LC-MS/MS analysis; format: ADME, organism-based; details: in vivo
SU-DHL-6 [9] = assay: Induction of apoptosis in human SU-DHL-6 cells assessed as viable cells at 1.5 uM incubated for 48 hrs by annexin V-FITC and PI staining based flow cytometry analysis (reference value: 87.0 %); format: functional; details: read-out: Activity
DOHH-2 [10] = assay: Induction of apoptosis in human DOHH-2 cells assessed as early apoptotic cells at 2 uM incubated for 48 hrs in presence of ibrutinib by annexin V-FITC and PI staining based flow cytometry analysis (reference value: 2.09 %); format: functional
[11] = Tmax in Sprague-Dawley rat at 10 mg/kg, po measured upto 24 hrs by LC-MS/MS analysis; format: ADME, organism-based; details: in vivo
[12] = Half life in Sprague-Dawley rat at 10 mg/kg, po measured upto 24 hrs by LC-MS/MS analysis; format: ADME, organism-based; details: in vivo
DOHH-2 [13] = assay: Induction of apoptosis in human DOHH-2 cells assessed as viable cells at 2 uM incubated for 48 hrs by annexin V-FITC and PI staining based flow cytometry analysis (reference value: 95.4 %); format: functional; details: read-out: Activity
[14] = Oral bioavailability in Sprague-Dawley rat at 10 mg/kg measured upto 24 hrs by LC-MS/MS analysis; format: ADME, organism-based; details: in vivo
Homo sapiens [15] = species: Homo sapiens; assay: Selectivity ratio of IC50 for N-terminal His6-tagged recombinant full length human PI3Kalpha expressed in baculovirus infected Sf21 insect cells to IC50 for N-terminal His6-tagged recombinant full length human PI3Kgamma expressed in baculovirus infected Sf21 insect cells
SUD4 = assay: Antiproliferative activity against human SU-DHL-4 cells assessed as cell growth inhibition measured after 72 hrs by MTT assay; format: functional, cell-based; details: SU-DHL-4, 72 h
SU-DHL-6 [16] = assay: Induction of apoptosis in human SU-DHL-6 cells assessed as necrotic cells at 1.5 uM incubated for 48 hrs in presence of ibrutinib by annexin V-FITC and PI staining based flow cytometry analysis (reference value: 0.32%); format: functional
DOHH-2 [17] = assay: Induction of cell cycle arrest in human DOHH-2 cells assessed as accumulation of cells at G0/G1 phase at 0.5 uM incubated for 24 hrs by PI staining based flow cytometry analysis (reference value: 23.47 %); format: functional
SU-DHL-6 [18] = assay: Induction of cell cycle arrest in human SU-DHL-6 cells assessed as accumulation of cells at G2/M phase at 0.5 uM incubated for 24 hrs in presence of ibrutinib by PI staining based FACScan flow cytometry analysis (reference value: 20.21 %); format: functional
[19] = Selectivity ratio of IC50 for human 786-O cells over expressing PI3Kbeta to IC50 for human SU-DHL-6 cells; format: functional
DOHH-2 [20] = assay: Induction of apoptosis in human DOHH-2 cells assessed as late apoptotic cells at 2 uM incubated for 48 hrs in presence of ibrutinib by annexin V-FITC and PI staining based flow cytometry analysis (reference value: 2.20 %); format: functional
DOHH-2 [21] = assay: Induction of apoptosis in human DOHH-2 cells assessed as necrotic cells at 2 uM incubated for 48 hrs in presence of ibrutinib by annexin V-FITC and PI staining based flow cytometry analysis (Rvb =0.29 %); format: functional
SU-DHL-6 [22] = assay: Induction of apoptosis in human SU-DHL-6 cells assessed as early apoptotic cells at 1.5 uM incubated for 48 hrs by annexin V-FITC and PI staining based flow cytometry analysis (reference value: 8.81 %); format: functional
[23] = AUC(0 to t) in Sprague-Dawley rat at 5 mg/kg, po measured upto 24 hrs by LC-MS/MS analysis; format: ADME, organism-based; parameters: dose 5 mg/kg, time < 24 hrs, route po; details: in vivo
SU-DHL-6 [24] = assay: Induction of cell cycle arrest in human SU-DHL-6 cells assessed as accumulation of cells at G0/G1 phase at 0.5 uM incubated for 24 hrs by PI staining based FACScan flow cytometry analysis (reference value: 55.61 %); format: functional
DOHH-2 [25] = assay: Antiproliferative activity against human DOHH-2 cells assessed as cell growth inhibition measured after 72 hrs by MTT assay; format: functional, cell-based; details: DOHH-2, 72 h
SU-DHL-6 [26] = assay: Antiproliferative activity against human SU-DHL-6 cells assessed as cell growth inhibition measured after 72 hrs by MTT assay; format: functional, cell-based; details: SU-DHL-6, 72 h
[27] = Volume of distribution at steady state in Sprague-Dawley rat at 2 mg/kg, iv measured upto 24 hrs by LC-MS/MS analysis; format: ADME, organism-based; details: in vivo, read-out: Vdss
DOHH-2 [28] = assay: Induction of apoptosis in human DOHH-2 cells assessed as necrotic cells at 2 uM incubated for 48 hrs by annexin V-FITC and PI staining based flow cytometry analysis (Rvb =0.29 %); format: functional
SU-DHL-6 [29] = assay: Induction of apoptosis in human SU-DHL-6 cells assessed as late apoptotic cells at 1.5 uM incubated for 48 hrs by annexin V-FITC and PI staining based flow cytometry analysis (reference value: 3.88 %); format: functional
DOHH-2 [30] = assay: Induction of cell cycle arrest in human DOHH-2 cells assessed as accumulation of cells at G2/M phase at 0.5 uM incubated for 24 hrs in presence of ibrutinib by PI staining based flow cytometry analysis (reference value: 21.42 %); format: functional
SU-DHL-6 [31] = assay: Induction of cell cycle arrest in human SU-DHL-6 cells assessed as accumulation of cells at S phase at 0.5 uM incubated for 24 hrs by PI staining based FACScan flow cytometry analysis (reference value: 24.18 %); format: functional
DOHH-2 [32] = assay: Induction of cell cycle arrest in human DOHH-2 cells assessed as accumulation of cells at G0/G1 phase at 0.5 uM incubated for 24 hrs in presence of ibrutinib by PI staining based flow cytometry analysis (reference value: 23.47 %); format: functional

Phosphatidylinositol 4,5-bisphosphate 3-kinase catalytic subunit alpha isoform, sequence (P42336 whole entry, canonical isoform): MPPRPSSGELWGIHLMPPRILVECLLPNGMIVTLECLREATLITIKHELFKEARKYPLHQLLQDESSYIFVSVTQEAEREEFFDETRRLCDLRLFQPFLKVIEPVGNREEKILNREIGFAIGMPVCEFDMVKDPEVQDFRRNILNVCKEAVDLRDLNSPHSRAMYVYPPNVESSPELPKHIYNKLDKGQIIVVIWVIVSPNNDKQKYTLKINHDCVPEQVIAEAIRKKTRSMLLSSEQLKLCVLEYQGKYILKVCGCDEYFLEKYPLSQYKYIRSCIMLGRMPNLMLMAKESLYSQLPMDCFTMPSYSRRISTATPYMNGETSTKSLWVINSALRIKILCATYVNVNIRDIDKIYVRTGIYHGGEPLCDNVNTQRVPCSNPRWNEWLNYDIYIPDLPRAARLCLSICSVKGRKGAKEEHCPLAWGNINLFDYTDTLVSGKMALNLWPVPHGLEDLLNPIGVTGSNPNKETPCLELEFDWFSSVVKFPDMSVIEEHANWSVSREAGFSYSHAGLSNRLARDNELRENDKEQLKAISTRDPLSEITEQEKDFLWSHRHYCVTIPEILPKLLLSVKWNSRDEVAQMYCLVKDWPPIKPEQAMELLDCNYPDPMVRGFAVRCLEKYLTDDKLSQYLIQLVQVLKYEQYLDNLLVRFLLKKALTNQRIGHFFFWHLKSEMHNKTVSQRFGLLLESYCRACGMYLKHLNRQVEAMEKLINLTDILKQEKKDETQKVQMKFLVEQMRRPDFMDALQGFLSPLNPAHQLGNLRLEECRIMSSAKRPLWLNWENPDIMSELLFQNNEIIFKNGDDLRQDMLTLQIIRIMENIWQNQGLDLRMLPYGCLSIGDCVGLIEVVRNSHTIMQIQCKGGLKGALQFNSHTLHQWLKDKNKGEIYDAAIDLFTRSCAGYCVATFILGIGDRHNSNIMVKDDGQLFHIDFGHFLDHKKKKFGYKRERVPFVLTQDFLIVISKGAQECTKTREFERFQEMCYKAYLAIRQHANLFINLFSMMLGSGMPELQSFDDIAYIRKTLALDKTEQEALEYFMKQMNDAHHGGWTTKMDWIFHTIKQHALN
Phosphatidylinositol 4,5-bisphosphate 3-kinase catalytic subunit gamma isoform, sequence (P48736 whole entry, canonical isoform): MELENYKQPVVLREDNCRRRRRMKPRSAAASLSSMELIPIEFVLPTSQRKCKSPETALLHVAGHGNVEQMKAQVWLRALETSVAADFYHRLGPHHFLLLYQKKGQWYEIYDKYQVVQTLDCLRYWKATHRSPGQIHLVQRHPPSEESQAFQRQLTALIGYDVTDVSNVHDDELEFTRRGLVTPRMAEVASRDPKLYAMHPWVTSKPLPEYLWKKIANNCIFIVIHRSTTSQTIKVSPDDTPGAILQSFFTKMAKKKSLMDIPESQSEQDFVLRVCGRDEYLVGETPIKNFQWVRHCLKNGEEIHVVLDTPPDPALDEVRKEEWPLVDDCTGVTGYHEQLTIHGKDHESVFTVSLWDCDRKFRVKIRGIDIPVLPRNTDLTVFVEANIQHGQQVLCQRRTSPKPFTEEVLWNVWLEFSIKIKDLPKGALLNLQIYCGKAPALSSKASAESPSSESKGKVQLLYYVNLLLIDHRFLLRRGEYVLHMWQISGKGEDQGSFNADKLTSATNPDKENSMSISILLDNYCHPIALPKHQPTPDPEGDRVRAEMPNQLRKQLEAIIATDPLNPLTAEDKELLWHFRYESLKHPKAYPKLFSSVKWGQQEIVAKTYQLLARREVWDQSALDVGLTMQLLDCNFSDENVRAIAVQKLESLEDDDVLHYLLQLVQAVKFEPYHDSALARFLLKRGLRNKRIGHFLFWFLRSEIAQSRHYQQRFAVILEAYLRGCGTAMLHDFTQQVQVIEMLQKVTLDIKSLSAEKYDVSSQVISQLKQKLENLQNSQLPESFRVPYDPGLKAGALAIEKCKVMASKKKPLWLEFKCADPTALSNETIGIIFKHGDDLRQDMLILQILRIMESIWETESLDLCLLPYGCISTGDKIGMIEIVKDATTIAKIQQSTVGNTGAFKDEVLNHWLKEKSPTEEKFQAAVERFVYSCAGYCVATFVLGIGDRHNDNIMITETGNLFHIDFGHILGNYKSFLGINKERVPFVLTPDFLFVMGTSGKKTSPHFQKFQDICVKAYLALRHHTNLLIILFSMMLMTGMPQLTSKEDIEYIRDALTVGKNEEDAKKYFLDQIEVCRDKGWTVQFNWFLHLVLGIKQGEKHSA

**Q.** With C[C@H]1CC[C@@H](c2nc3cccc(Cl)c3c(=O)n2-c2cccnc2)N1c1nc(N)nc(N)c1C#N as the molecule, how does the IC50 [1] read?
**A.** 16000 nM

**Q.** And the Activity (SU-DHL-6 [2])?
**A.** 10.01%

**Q.** And the Vd [3]?
**A.** 2.86 L/kg

**Q.** What about the IC50 [4] of the same molecule?
**A.** 794000 nM

**Q.** And the Activity (DOHH-2 [5])?
**A.** 32.92%

**Q.** And the Ratio IC50 (Homo sapiens [6])?
**A.** 84

**Q.** And the half-life [7]?
**A.** 9.46 h

**Q.** And the Tmax [8]?
**A.** 1.2 h

**Q.** And the viability at 1.5 µM (SU-DHL-6 [9])?
**A.** 74.7%

**Q.** What about the Activity (DOHH-2 [10]) of the same molecule?
**A.** 48.9%

**Q.** And the Tmax [11]?
**A.** 0.83 h

**Q.** What about the half-life [12] of the same molecule?
**A.** 2.4 h

**Q.** What about the viability at 2 µM (DOHH-2 [13]) of the same molecule?
**A.** 60.6%

**Q.** What about the bioavailability [14] of the same molecule?
**A.** 57%

**Q.** And the Ratio IC50 (Homo sapiens [15])?
**A.** 794

**Q.** What about the IC50 (SUD4) of the same molecule?
**A.** 30 nM

**Q.** And the Activity (SU-DHL-6 [16])?
**A.** 0.25%

**Q.** And the Activity (DOHH-2 [17])?
**A.** 36.44%

**Q.** What about the Activity (SU-DHL-6 [18]) of the same molecule?
**A.** 4.62%

**Q.** What about the Selectivity ratio [19] of the same molecule?
**A.** 142

**Q.** And the Activity (DOHH-2 [20])?
**A.** 25.8%

**Q.** And the Activity (DOHH-2 [21])?
**A.** 1.88%

**Q.** And the Activity (SU-DHL-6 [22])?
**A.** 17.7%

**Q.** And the AUC(0-t) at 24 h [23]?
**A.** 8610 ng·h/mL

**Q.** What about the Activity (SU-DHL-6 [24]) of the same molecule?
**A.** 63.84%

**Q.** What about the IC50 (DOHH-2 [25]) of the same molecule?
**A.** 200 nM

**Q.** And the IC50 (SU-DHL-6 [26])?
**A.** 60 nM

**Q.** What about the Vd [27] of the same molecule?
**A.** 1.66 L/kg

**Q.** And the Activity (DOHH-2 [28])?
**A.** 1.45%

**Q.** What about the Activity (SU-DHL-6 [29]) of the same molecule?
**A.** 7.43%

**Q.** What about the Activity (DOHH-2 [30]) of the same molecule?
**A.** 20.03%

**Q.** And the Activity (SU-DHL-6 [31])?
**A.** 26.15%

**Q.** What about the Activity (DOHH-2 [32]) of the same molecule?
**A.** 53.16%

From ChEMBL document CHEMBL5120922, “Discovery, Optimization, and Evaluation of Potent and Selective PI3Kδ-γ Dual Inhibitors for the Treatment of B-cell Malignancies” (J Med Chem, 2022)
